{
  "source": "patent US8912144B2",
  "about": "“Method for treating stroke via administration of NEP1-40 and inosine” (Children's Medical Center Corporation, priority 2003, dated 2014)",
  "tested_on": "corticospinal neurons (CSNs/CSMNs)",
  "assay": "Laser-capture microdissection and Illumina microarray gene expression in corticospinal neurons contralateral to stroke",
  "type": "in vivo, rat",
  "experimental": "In a separate group of animals (n=20), layer V pyramidal cells of the sensorimotor cortex were retrogradely labeled by injecting Alexa-Fluor-488-conjugated cholera toxin B subunit (CTB; 300 U/μl in sterile saline) into the cervical spinal cord. For this, animals were anesthetized with a combination of ketamine and Domitor (medetomidine) and a laminectomy was performed at the cervical level of the spinal cord (C2-C4). CTB was stereotaxically delivered into four sites lateral to the corticospinal tract. Injections (1.3 μl) were spaced 1 mm apart on the rostro-caudal axis, and were made 0.5 mm to the left and right of the midline. After allowing two weeks for transport of the tracer, we performed either sham surgery with no treatment (n=6) or stroke surgery combined with saline (n=3) or inosine (n=4) treatment as described above. Seven days later, animals were decapitated under transient gas anesthesia, brains were removed and rinsed in cold RPMI medium, and a tissue block containing the sensorimotor cortex was dissected and placed in OCT Tissue Tek Medium (Sakura Finetek USA Inc., CA) on dry ice within five minutes of death. Ten μm sections were cut onto precleaned Gold Seal RITE-ON glass slides (Gold Seal Prod-ucts, Portsmouth, N.H.), placed on dry ice, and rapidly stored at −80° C.\nSlide-mounted sections were thawed and dehydrated in RNAse-free ethanol gradients and xylene. Retro-gradely labeled, fluorescent cortical pyramidal cells in the undamaged hemisphere were individually captured using the Arcturus VERITAS system. ≧500 cells were collected from each animal and stored in Arcturus extraction buffer at −80° C. Total RNA was extracted from cells using the Micro-to-Midi TotalRNA Purification System (Invitrogen, Carlsbad Calif.) and double-amplified using the TargetAmp 2-Round Aminoallyl-aRNA Amplification kit 1.0 (Epicentre, Madison, Wis.). Amplified RNA was checked for average fragment length using the Agilent RNA 6000 Nano LabChip kit (Agilent Technologies, Santa Clara, Calif.) and then biotinylated and hybridized (1 μg) on Illumina RatRef-12 Expression BeadChip arrays (Illumina, San Diego Calif.), querying the expression of >22,000 RefSeq-curated rat transcripts. Results were obtained from a total of 15 samples representing 6 untreated controls, 4 animals with stroke treated with saline and 5 animals with stroke treated with inosine. Slides were processed and scanned with Illumina BeadStation platform according to the manufacturer protocol.\nRaw data was analyzed using Bioconductor packages (www.bioconductor.org, (Gentleman et al., 2004)). Low level quality-control analysis was performed using inter-array Pearson correlation and clustering based on variance. Two arrays (1 saline and 1 inosine-treated) were outliers and were excluded from the analysis. Data was normalized using quantile normalization, and analysis of differential expression was performed using a linear model fitting (LIMMA package, (Smyth, 2005). Differentially expressed genes were classified according to gene ontology using Bioconductor packages and online tools (DAVID, http://david.abcc.ncifcrf.gov/). Pathway analysis was carried out using Ingenuity Pathway Analysis (Ingenuity Systems, www.ingenuity.com).",
  "data": [
    {"smiles": "OC[C@H]1O[C@@H](n2cnc3c(O)ncnc32)[C@H](O)[C@@H]1O", "note": "[inosine]", "values": [
      {"measurement": "Fold-Induction Stroke, ino vs. cntrl, Hbld2", "setting": "ILMN_57967", "value": 0.54},
      {"measurement": "Signal Intensity, Hbld2", "setting": "ILMN_57967, inosine after stroke", "value": 1095},
      {"measurement": "Fold-Induction Stroke, ino vs. cntrl, LOC298490", "setting": "ILMN_58032", "value": 0.62},
      {"measurement": "Signal Intensity, LOC298490", "setting": "ILMN_58032, inosine after stroke", "value": 1407},
      {"measurement": "Fold-induction CSMNs: Lcp1", "setting": "ILMN_58058, over and above inosine's effect of decreasing stroke-induced changes", "value": 2.68, "unit": "fold"},
      {"measurement": "Fold-Induction Stroke, ino vs. cntrl, LOC290549", "setting": "ILMN_58092", "value": 0.54},
      {"measurement": "Signal Intensity, LOC290549", "setting": "ILMN_58092, inosine after stroke", "value": 1870},
      {"measurement": "Fold-Induction Stroke, ino vs. cntrl, Rhob", "setting": "ILMN_58180", "value": 0.52},
      {"measurement": "Signal Intensity, Rhob", "setting": "ILMN_58180, inosine after stroke", "value": 276},
      {"measurement": "Fold-Induction Stroke, ino vs. cntrl, Gdap2", "setting": "ILMN_58290", "value": 0.58},
      {"measurement": "Signal Intensity, Gdap2", "setting": "ILMN_58290, inosine after stroke", "value": 319},
      {"measurement": "Fold-Induction, complement cascade gene C1qa", "setting": "ILMN_58496, LCM-captured CSMNs contralateral a stroke", "value": 2.03, "unit": "fold"},
      {"measurement": "Fold-induction CSMNs: C1qa", "setting": "ILMN_58496, over and above inosine's effect of decreasing stroke-induced changes", "value": 1.84, "unit": "fold"},
      {"measurement": "Fold-Induction Stroke, ino vs. cntrl, Rab11a", "setting": "ILMN_58550", "value": 0.56},
      {"measurement": "Signal Intensity, Rab11a", "setting": "ILMN_58550, inosine after stroke", "value": 1039},
      {"measurement": "Fold-Induction Stroke, ino vs. cntrl, LOC499088", "setting": "ILMN_58730", "value": 0.59},
      {"measurement": "Signal Intensity, LOC499088", "setting": "ILMN_58730, inosine after stroke", "value": 1089},
      {"measurement": "Fold-Induction Stroke, ino vs. cntrl, Dars", "setting": "ILMN_58816", "value": 0.76},
      {"measurement": "Signal Intensity, Dars", "setting": "ILMN_58816, inosine after stroke", "value": 349},
      {"measurement": "Fold-Induction, complement cascade gene Adn ((P) adipsin)", "setting": "ILMN_58846, LCM-captured CSMNs contralateral a stroke", "value": 5.81, "unit": "fold"},
      {"measurement": "Fold-Induction Stroke, ino vs. cntrl, Emb", "setting": "ILMN_58897", "value": 0.77},
      {"measurement": "Signal Intensity, Emb", "setting": "ILMN_58897, inosine after stroke", "value": 425},
      {"measurement": "Fold-Induction Stroke, ino vs. cntrl, Kifap3", "setting": "ILMN_59040", "value": 0.64},
      {"measurement": "Signal Intensity, Kifap3", "setting": "ILMN_59040, inosine after stroke", "value": 270},
      {"measurement": "Fold-induction CSMNs: Npc2", "setting": "ILMN_59161, over and above inosine's effect of decreasing stroke-induced changes", "value": 1.73, "unit": "fold"},
      {"measurement": "Fold-Induction Stroke, ino vs. cntrl, Plcb1", "setting": "ILMN_59359", "value": 0.59},
      {"measurement": "Signal Intensity, Plcb1", "setting": "ILMN_59359, inosine after stroke", "value": 512},
      {"measurement": "Fold-induction CSMNs: Emp3", "setting": "ILMN_59412, over and above inosine's effect of decreasing stroke-induced changes", "value": 2.20, "unit": "fold"},
      {"measurement": "Fold-Induction Stroke, ino vs. cntrl, LOC291762", "setting": "ILMN_59483", "value": 0.52},
      {"measurement": "Signal Intensity, LOC291762", "setting": "ILMN_59483, inosine after stroke", "value": 673},
      {"measurement": "Fold-Induction Stroke, ino vs. cntrl, LOC315840", "setting": "ILMN_59546", "value": 0.85},
      {"measurement": "Signal Intensity, LOC315840", "setting": "ILMN_59546, inosine after stroke", "value": 3649},
      {"measurement": "Fold-Induction, complement cascade gene C4-2", "setting": "ILMN_59751, LCM-captured CSMNs contralateral a stroke", "value": 2.15, "unit": "fold"},
      {"measurement": "Fold-induction CSMNs: Ppp1r14b", "setting": "ILMN_59774, over and above inosine's effect of decreasing stroke-induced changes", "value": 1.74, "unit": "fold"},
      {"measurement": "Fold-Induction Stroke, ino vs. cntrl, Bcas2", "setting": "ILMN_59789", "value": 0.91},
      {"measurement": "Signal Intensity, Bcas2", "setting": "ILMN_59789, inosine after stroke", "value": 1103},
      {"measurement": "Fold-Induction Stroke, ino vs. cntrl, D123", "setting": "ILMN_59956", "value": 0.76},
      {"measurement": "Signal Intensity, D123", "setting": "ILMN_59956, inosine after stroke", "value": 607},
      {"measurement": "Fold-Induction Stroke, ino vs. cntrl, LOC497728", "setting": "ILMN_59964", "value": 0.56},
      {"measurement": "Signal Intensity, LOC497728", "setting": "ILMN_59964, inosine after stroke", "value": 1366},
      {"measurement": "Fold-induction CSMNs: Cd68", "setting": "ILMN_60003, over and above inosine's effect of decreasing stroke-induced changes", "value": 2.62, "unit": "fold"},
      {"measurement": "Fold-Induction Stroke, ino vs. cntrl, Tspan2", "setting": "ILMN_60033", "value": 0.54},
      {"measurement": "Signal Intensity, Tspan2", "setting": "ILMN_60033, inosine after stroke", "value": 1363},
      {"measurement": "Fold-induction CSMNs: Lgals3bp", "setting": "ILMN_60037, over and above inosine's effect of decreasing stroke-induced changes", "value": 2.60, "unit": "fold"},
      {"measurement": "Fold-Induction, complement cascade gene Serping1", "setting": "ILMN_60046, LCM-captured CSMNs contralateral a stroke", "value": 2.20, "unit": "fold"},
      {"measurement": "Fold-induction CSMNs: Serping1", "setting": "ILMN_60046, over and above inosine's effect of decreasing stroke-induced changes", "value": 2.93, "unit": "fold"},
      {"measurement": "Fold-Induction Stroke, ino vs. cntrl, Pgk1", "setting": "ILMN_60123", "value": 0.65},
      {"measurement": "Signal Intensity, Pgk1", "setting": "ILMN_60123, inosine after stroke", "value": 5869},
      {"measurement": "Fold-Induction Stroke, ino vs. cntrl, Ndufa8", "setting": "ILMN_60239", "value": 0.57},
      {"measurement": "Signal Intensity, Ndufa8", "setting": "ILMN_60239, inosine after stroke", "value": 572},
      {"measurement": "Fold-Induction Stroke, ino vs. cntrl, Kbtbd9", "setting": "ILMN_60252", "value": 0.68},
      {"measurement": "Signal Intensity, Kbtbd9", "setting": "ILMN_60252, inosine after stroke", "value": 1263},
      {"measurement": "Fold-Induction Stroke, ino vs. cntrl, LOC309016", "setting": "ILMN_60417", "value": 0.68},
      {"measurement": "Signal Intensity, LOC309016", "setting": "ILMN_60417, inosine after stroke", "value": 554},
      {"measurement": "Fold-Induction Stroke, ino vs. cntrl, Bckdhb", "setting": "ILMN_60448", "value": 0.61},
      {"measurement": "Signal Intensity, Bckdhb", "setting": "ILMN_60448, inosine after stroke", "value": 281},
      {"measurement": "Fold-Induction Stroke, ino vs. cntrl, Rbm18", "setting": "ILMN_60511", "value": 0.62},
      {"measurement": "Signal Intensity, Rbm18", "setting": "ILMN_60511, inosine after stroke", "value": 301},
      {"measurement": "Fold-Induction Stroke, ino vs. cntrl, LOC360618", "setting": "ILMN_60542", "value": 0.69},
      {"measurement": "Signal Intensity, LOC360618", "setting": "ILMN_60542, inosine after stroke", "value": 1021},
      {"measurement": "Fold-Induction Stroke, ino vs. cntrl, Mg87", "setting": "ILMN_60584", "value": 0.80},
      {"measurement": "Signal Intensity, Mg87", "setting": "ILMN_60584, inosine after stroke", "value": 1251},
      {"measurement": "Fold-Induction Stroke, ino vs. cntrl, Ndfip1", "setting": "ILMN_60653", "value": 0.80},
      {"measurement": "Signal Intensity, Ndfip1", "setting": "ILMN_60653, inosine after stroke", "value": 362},
      {"measurement": "Fold-induction CSMNs: Rhoc", "setting": "ILMN_61063, over and above inosine's effect of decreasing stroke-induced changes", "value": 2.02, "unit": "fold"},
      {"measurement": "Fold-Induction Stroke, ino vs. cntrl, Pja2", "setting": "ILMN_61213", "value": 0.58},
      {"measurement": "Signal Intensity, Pja2", "setting": "ILMN_61213, inosine after stroke", "value": 2360},
      {"measurement": "Fold-Induction Stroke, ino vs. cntrl, Khdrbs3", "setting": "ILMN_61216", "value": 0.57},
      {"measurement": "Signal Intensity, Khdrbs3", "setting": "ILMN_61216, inosine after stroke", "value": 2045},
      {"measurement": "Fold-Induction Stroke, ino vs. cntrl, Dlgap1", "setting": "ILMN_61367", "value": 0.68},
      {"measurement": "Signal Intensity, Dlgap1", "setting": "ILMN_61367, inosine after stroke", "value": 1249},
      {"measurement": "Fold-Induction, complement cascade gene C1qb", "setting": "ILMN_61448, LCM-captured CSMNs contralateral a stroke", "value": 1.84, "unit": "fold"},
      {"measurement": "Fold-Induction Stroke, ino vs. cntrl, LOC500629", "setting": "ILMN_61521", "value": 0.59}
    ]}
  ]
}
